Source: publication PMC10065799, “High-throughput profiling of sequence recognition by tyrosine kinases and SH2 domains using bacterial peptide display” (eLife, 2023)

Experiments:
[1] = molecular target: T1, c-Src kinase domain (Homo sapiens, UniProt P12931); assay: RP-HPLC assay to measure peptide phosphorylation kinetics; type: biochemical; conditions: purified peptide substrate
[2] = molecular target: T2, c-Abl kinase domain (Mus musculus, UniProt P00520); assay: ADP-Quest continuous fluorimetric kinase assay (Michaelis-Menten parameters and initial rates); type: biochemical; conditions: c-Abl kinase domain 10 nM, 100 μM ATP, 37 °C, three to five replicates, error = standard error of global Michaelis-Menten fit
T2 sequence (P00520 242-493 limits assumed): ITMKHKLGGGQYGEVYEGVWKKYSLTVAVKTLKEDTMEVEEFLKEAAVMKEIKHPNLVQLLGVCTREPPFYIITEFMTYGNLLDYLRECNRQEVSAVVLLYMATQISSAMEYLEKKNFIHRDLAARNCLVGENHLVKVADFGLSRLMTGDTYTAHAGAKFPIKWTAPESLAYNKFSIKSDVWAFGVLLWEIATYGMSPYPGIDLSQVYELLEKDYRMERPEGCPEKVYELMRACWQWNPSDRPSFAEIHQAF
Excerpt: (§1) A fluorescence-based assay from Eurofins (ADP Quest) was used to measure the Michaelis-Menten kinetic parameters for phosphorylation of the consensus peptides by purified tyrosine kinase domains. In this assay, ADP production as a result of kinase activity is coupled to the production of resorufin, a fluorophore that emits signal at 590 nm. For all experiments, the assay reactions were set up as described in the provided assay kit protocol, in a 384 well plate format. The peptide solutions were serially diluted in 100 mM Tris, pH 8.0, and the kinases were diluted to 50 nM in buffer (10 mM HEPES, 100 mM NaCl, 1 mM TCEP, 5 mM MgCl2, 10% (v/v) glycerol). The final reaction mixtures contained 10 nM of kinase with 100 μM of ATP. Reactions were initiated with the addition of 1 mM ATP into a 50 μL reaction mixture for a final concentration of 100 μM ATP. Phosphorylation reaction progress was monitored by measuring fluorescence at excitation 530 nm and emission 590 nm every 2 min at 37 °C on a plate reader (BioTek Synergy Neo 2). The fluorescence units (RFU) were converted to μM ADP by comparison to a standard curve, and the initial rates were extracted from the linear regime of the reaction progress curves. Initial rates were also measured for samples containing each kinase but lacking a peptide substrate, to account for background ATP hydrolysis. This background rate was subtracted from the rates measured in the presence of peptide. The subtracted rates were plotted as a function of substrate concentration and fit to the Michaelis-Menten equation to extract kcat and KM values.

[3] = molecular target: T1, c-Src kinase domain; assay: as above; type: biochemical; conditions: c-Src kinase domain 10 nM, 100 μM ATP, 37 °C, three to five replicates, error = standard error of global Michaelis-Menten fit
Excerpt: as §1

[4] = test system: EPHB2 kinase domain; assay: ADP-Quest continuous fluorimetric kinase assay (initial rates of consensus peptides); type: biochemical, human; conditions: peptide 100 μM, kinase 10–50 nM; Figure 2C
Excerpt: as §1, with “Reactions were initiated with the addition of 1 mM ATP into a 50 μL reaction mixture for a final concentration of 100 μM ATP.” left out, “The subtracted rates were plotted as a function of substrate concentration and fit to the Michaelis-Menten equation to extract kcat and KM values.” left out

Row | Substance | Phosphorylation Rate [1] [s⁻¹] | Km [2] [µM] | kcat [2] [s^–1] | Km [3] [µM] | kcat [3] [s^–1] | phosphorylation of consensus peptide by EPHB2 (initial rate relative to cognate consensus) [4]
1 | Ac-VASSLYDILAR-NH2 [GLB1_Y294] | 0.892 |  |  |  |  | 
2 | Ac-GPDEPIYAVPPIKKKG-NH2 [Abl Consensus, c-Abl consensus substrate peptide from X5-Y-X5 screen] |  | 6 ± 2 | 3.0±0.2 | 159 ± 31 | 2.0±0.2 | efficiently phosphorylated
